Experimental findings from patent US7160898B2, “Pharmacological treatment for sleep apnea” (Board of Trustees of The University of Illinois, priority 2002, dated 2007) are described below.

Common to all, as to type: in vivo, rat (Sprague-Dawley)
The test system of one data set is cardiovascular variables. In words: Radiotelemetry of blood pressure and heart period after GR38032F (Example 2). The settings on record: 1 mg/kg i.p. From the text:
After surgery, all animals were allowed to recover for one week before being subjected to another surgery that involved implantation of a radiotelemetry transmitter (TA11-PXT, Data Sciences International, St. Paul, Minn.) for monitoring blood pressure (BP) and heart period (HP), estimated as pulse interval. After the animals were anesthetized (as described above), the hair from the subxiphoid space to the pelvis was removed. The entire area was scrubbed with iodine and rinsed with alcohol and saline. A 4–6 cm midline abdominal incision was made to allow good visualization of the area from the bifurcation of the aorta to the renal arteries. A retractor was used to expose the contents of the abdomen and the intestine was held back using saline moistened gauze sponges. The aorta was dissected from the surrounding fat and connective tissues using sterile cotton applicators. A 3-0 silk suture was placed beneath the aorta and traction was applied to the suture to restrict the blood flow. Then the implant (TA11-PXT) was held by forceps while the aorta was punctured just cranial to the bifurcation using a 21-gauge needle bent at the beveled end. The tip of the catheter was inserted under the needle using the needle as a guide until the thin-walled BP sensor section was within the vessel. Finally, one drop of tissue adhesive (Vetbond®, 3M, Minneapolis, Minn.) was applied to the puncture site and covered with a small square of cellulose fiber (approximately 5 mm^2) so as to seal the puncture after catheter insertion. The radio implant was attached to the abdominal wall by 3-0 silk suture, and the incision was closed in layers. After the second surgery, animals were again allowed a one week recovery period prior to administration of the serotonin receptor antagonist and subsequent physiological recording.
(§1) Physiological parameters (see below) from each animal were recorded on 2 occasions in random order, with recordings for an individual animal separated for at least 3 days. Fifteen minutes prior to each recording each animal received a systemic injection (1 ml/kg intraperitoneal bolus injection) of either saline (control) or 1 mg/kg of ondansetron (GR38032F; 1,2,3,9-tetrahydro-9-methyl-3-[(2-methylimidazol-1-yl)methyl]carbazole-4-one, hydrochloride, dihydrate; Glaxo Wellcome, Inc., Research Triangle Park, N.C.). Polygraphic recordings were made from hours 10:00–16:00.
Similar software (Experimenters' Workbench; Datawave Technologies, Longmont, Colo.) was employed to analyze the blood pressure waveform; for each beat of each recording, systolic (SBP) and diastolic (DBP) blood pressures and pulse interval were measured. The pulse interval provided a beat by beat estimate of HP. Mean BP (MBP) was estimated according to the weighted average of SBP and DBP for each beat: MBP=DBP+(SBP−DBP)/3. The parameters for each beat were also classified according to the sleep/wake state and recording hour during which they occurred.

The next data set deals with sleep/wake architecture. In words: Sleep/wake architecture after 5-HT and GR38032F (Example 3). The settings on record: i.p. As for the experimental part: Sleep and waking states were assessed using the biparietal EEG and nuchal EMG signals on 10-second epochs as described by Bennington et al. [Sleep, 17:28–36 (1994)]. This software discriminated wakefulness (W) as a high frequency low amplitude EEG with a concomitant high EMG tone, NREM sleep by increased spindle and […] activity together with decreased EMG tone, and REM sleep by a […] activity and an absence of EMG tone. Sleep efficiency was measured as the percentage of total recorded epochs staged as NREM or REM sleep.
Each animal was recorded on four occasions, with recordings for an individual animal separated by at least three days. Fifteen minutes prior to each recording, each animal received (via intraperitoneal injection), in random order, one of the following: (a) saline solution (control); (b) 0.79 mg/kg serotonin; (c) 0.1 mg/kg GR38032F plus 0.79 mg/kg serotonin; or (d) 0.1 mg/kg GR38032F. For the GR38032F+serotonin test group, 0.1 mg/kg GR38032F was administered at time 09:30 followed by 0.79 mg/kg serotonin at time 09:45. Polygraphic recordings were made from 10:00–16:00.
Respiration BP, EEG, and EMG data were determined and recorded via the experimental procedure as specifically set forth above in Example 2. As in Example 2, sleep apneas, defined as cessation of respiratory effort for at least 2.5 s, were scored for each recording session and were associated with the stage in which they occurred: NREM or REM sleep. The duration requirement of 2.5 s represents at least two “missed” breaths, which is analogous to a 10-s apnea duration requirement in humans.
The effects of sleep stage (NREM vs REM) and injection (control vs. administration of either serotonin alone, GR38032F+serotonin, or GR38032F alone) on apnea indexes, respiratory pattern, BP, and HP were tested using analysis of variance (ANOVA) with repeated measures. Multiple comparisons were controlled using Fisher's protected least-significance difference (PLSD). One-way ANOVA was also performed by nonparametric (Kruskal-Wallis) analysis. Conclusions using parametric and nonparametric ANOVA were identical in all cases.

Another data set has as its system NREM and REM sleep. The experiment in a line: Sleep/wake staging by EEG/EMG after GR38032F (Example 2). The settings on record: 1 mg/kg i.p. As for the experimental part:
as §1
Respiration was recorded by placing each animal, unrestrained, inside a single chamber plethysmograph (PLYUNIR/U; Buxco Electronics, Sharon, Conn.; dimension 6 in.×10 in.×6 in.) ventilated with a bias flow of fresh room air at a rate of 2 L/min. A cable plugged onto the animal's connector and passed through a sealed port was used to carry the bioelectrical activity from the head implant.
Sleep and waking states were assessed using the biparietal EEG and nuchal EMG signals on 10-second epochs as described by Bennington et al. [Sleep, 17:28–36 (1994)]. […] Sleep efficiency was measured as the percentage of total recorded epochs staged as NREM or REM sleep.

[1] abbreviates: percent recording time, 6 hours, 5-HT 0.79 mg/kg, GR38032F 0.1 mg/kg, mean ± SE.

Consider `Cc1nccn1CC1CCc2c(c3ccccc3n2C)C1=O.Cl.O.O` (stereo not shown) [GR38032F, 1,2,3,9-tetrahydro-9-methyl-3-[(2-methylimidazol-1-yl)methyl]carbazole-4-one, hydrochloride, dihydrate], for which, in the data set with cardiovascular variables (NREM sleep, mean ± SE), the “HP, NREM” value was determined as 189 ± 3 ms and the “Mean BP, NREM” value came to 112 ± 17 mm Hg. For the same molecule, in the data set on cardiovascular variables (REM sleep, mean ± SE), the “HP, REM” value is 190 ± 3 ms and the “Mean BP, REM” value was 110 ± 17 mm Hg. In addition, the “effect on cardiovascular variables (MBP and HP during W, NREM, REM sleep)” value with cardiovascular variables (p>0.1 for each variable) is “no effect on any cardiovascular variable”. In the data set with cardiovascular variables (wakefulness, mean ± SE), the “HP, W” value was 183 ± 3 ms and the “Mean BP, W” value is listed as 113 mm Hg. Further, the “effect on sleep architecture” value with sleep/wake architecture (6 hours of polygraphic recording) was “had no effect on sleep architecture”. Besides, in the data set on sleep/wake architecture (setting [1]), the “% NREM” value came to 63.4 ± 5.7%, the “% REM” value is recorded as 7.3 ± 2.3% and the “% Wakefulness” value is reported as 28.8 ± 6.4%. For the same molecule, the “percentage of total recording time spent in REM sleep” value with NREM and REM sleep (6 hours) is on record as “did not significantly affect REM sleep”. Besides, the “percentage of total recording time spent in NREM sleep” value with NREM and REM sleep (first 2 hours, p<0.001) is reported as “significant suppression of NREM sleep”.
